Assay results taken from patent publication US6589993B2, “Treating vancomycin-intermediates and multiresistant staphylococci infection with thiamphenicol or a salt thereof” (Zambon Group S.p.A., priority 2000, dated 2003).
Values after ≈ are worked out from the molar mass of the structure shown. Where two headings read alike, the source gives them in different places.

Legend:
[1] = test system: S. aureus vancomycin-intermediates (VISA) Met-R strains; experiment: MIC determination (NCCLS broth microdilution), VISA Met-R strains; type: cell-based, Staphylococcus aureus; conditions: for MIC: antibiotype Oxa, Cip, Clin, Ery
Method: (§1) The MICs of thiamphenicol and of other antibiotics was obtained by using the method proposed by NCCLS (National Committee for Clinical Laboratory Standards, 1999).
(§2) Various antibiotic concentrations were added to bacteria in exponental growth (final inoculum 5×10^5 […]); dilution in Mb (cation-supplemented Mueller-Hinton broth) and distribution on a microplate by using an automatic diluting machine Biomek 1000 (Beckman, USA). MHb charged with 2% NaCl was used to test the methicillin activity.
(§3) The antibiotic concentration which hinders a visible growth after 18-24 hours of incubation at 37° C., was registered as MIC.
(§4) S. aureus ATCC 29213 was used as quality control strain.

[2] = test system: S. aureus Met-R multiresistant strains; experiment: MIC determination (NCCLS broth microdilution), methicillin-resistant multiresistant S. aureus strains; type: cell-based, Staphylococcus aureus; conditions: for MIC: antibiotype Oxa, Ery, read-out: MIC
Method: as §1, §2, §3, §4

[3] = Staphylococcus aureus, Strain 51 VISA, read-out: MIC
[4] = Staphylococcus aureus, Strain 1, Cip, Clin, Gm
[5] = Staphylococcus aureus, Strain 2, Clin, Fos
[6] = Staphylococcus aureus, Strain 3, Cip, Clin, Gm
[7] = Staphylococcus aureus, Strain 4, Cip, Gm
[8] = Staphylococcus aureus, Strain 5, Cip, Clin
[9] = Staphylococcus aureus, Strain 6, Clin, Gm
[10] = Staphylococcus aureus, Strain 7, Cip, Gm
[11] = Staphylococcus aureus, Strain 8, Cip, Clin
[12] = Staphylococcus aureus, Strain 9, Cip, Clin, Gm
[13] = Staphylococcus aureus, Strain 10, Cip, Clin, Gm
[14] = Staphylococcus aureus, Strain 11, Clin, Rif
[15] = Staphylococcus aureus, Strain 12, Cip, Clin
[16] = Staphylococcus aureus, Strain 13, Cip, Clin
[17] = Staphylococcus aureus, Strain 14, Clin, Cip
[18] = Staphylococcus aureus, Strain 15, Cip, Clin, Gm
[19] = Staphylococcus aureus, Strain 16, Cip, Clin
[20] = Staphylococcus aureus, Strain 17, Cip, Clin
[21] = Staphylococcus aureus, Strain 18, Cip, Clin, Gm
[22] = Staphylococcus aureus, Strain 19, Cip, Clin, Gm
[23] = Staphylococcus aureus, Strain 20, Cip, Clin, Gm
[24] = Staphylococcus aureus, Strain 21, Cip, Clin, Gm
[25] = Staphylococcus aureus, Strain 22, Cip, Clin
[26] = Staphylococcus aureus, Strain 23, Cip, Clin, Gm
[27] = Staphylococcus aureus, Strain 24, Cip, Clin, Gm
[28] = Staphylococcus aureus, Strain 25, Cip, Clin, Gm
[29] = Staphylococcus aureus, Strain 26, Cip, Clin, Fos, Gm
[30] = Staphylococcus aureus, Strain 27, Cip, Clin, Fos, Gm
[31] = Staphylococcus aureus, Strain 28, Cip, Clin, Gm
[32] = Staphylococcus aureus, Strain 29, Clin, Fos
[33] = Staphylococcus aureus, Strain 30, Cip, Clin, Gm, SXT, Dox
[34] = Staphylococcus aureus, Strain 31, Cip, Clin, Fox, Gm
[35] = Staphylococcus aureus, Strain 32, Cip, Clin, Gm, SXT, Rif
[36] = Staphylococcus aureus, Strain 33, Cip, Clin, Gm
[37] = Staphylococcus aureus, Strain 34, Cip, Clin, Gm
[38] = Staphylococcus aureus, Strain 35, Cip, Clin, Gm
[39] = Staphylococcus aureus, Strain 36, Cip, Clin, Fos
[40] = Staphylococcus aureus, Strain 37, Cip, Clin, Fos, Gm
[41] = Staphylococcus aureus, Strain 38, Cip, Gm
[42] = Staphylococcus aureus, Strain 39, Cip, Clin, Fos, Gm
[43] = Staphylococcus aureus, Strain 40, Cip, Clin, Gm
[44] = Staphylococcus aureus, Strain 41, Cip, Clin
[45] = Staphylococcus aureus, Strain 42, Cip, Clin, Gm
[46] = Staphylococcus aureus, Strain 43, Cip, Clin, Gm
[47] = Staphylococcus aureus, Strain 44, Cip, Clin, Gm, Rif, Dox
[48] = Staphylococcus aureus, Strain 45, Cip, Clin, Gm, Rif, Dox, Fos
[49] = Staphylococcus aureus, Strain 46, Clin, Fos
[50] = Staphylococcus aureus, Strain 47, Cip, Clin, Gm
[51] = Staphylococcus aureus, Strain 48, Cip, Clin
[52] = Staphylococcus aureus, Strain 49, Cip, Gm
[53] = Staphylococcus aureus, Strain 50, Cip, Clin, Gm, Rif, Dox

## COc1cccc(OC)c1C(=O)N[C@@H]1C(=O)N2[C@@H]1SC(C)(C)[C@@H]2C(=O)O [Meth, methicilline]
[1]; [3]
  MIC: > 64 µg/mL
[1]; Strain 52 VISA
  MIC: >64 µg/mL
[2]; [4]
  MIC: > 64 µg/mL
[2]; [5]
  MIC: > 64 µg/mL
[2]; [6]
  MIC: > 64 µg/mL
[2]; [7]
  MIC: > 64 µg/mL
[2]; [8]
  MIC: > 64 µg/mL
[2]; [9]
  MIC: > 64 µg/mL
[2]; [10]
  MIC: 32 µg/mL (≈ 84.1 µM)
[2]; [11]
  MIC: > 64 µg/mL
[2]; [12]
  MIC: > 64 µg/mL
[2]; [13]
  MIC: > 64 µg/mL
[2]; [14]
  MIC: > 64 µg/mL
[2]; [15]
  MIC: > 64 µg/mL
[2]; [16]
  MIC: > 64 µg/mL
[2]; [17]
  MIC: > 64 µg/mL
[2]; [18]
  MIC: > 64 µg/mL
[2]; [19]
  MIC: > 64 µg/mL
[2]; [20]
  MIC: 64 µg/mL (≈ 168 µM)
[2]; [21]
  MIC: > 64 µg/mL
[2]; [22]
  MIC: > 64 µg/mL
[2]; [23]
  MIC: > 64 µg/mL
[2]; [24]
  MIC: > 64 µg/mL
[2]; [25]
  MIC: > 64 µg/mL
[2]; [26]
  MIC: > 64 µg/mL
[2]; [27]
  MIC: > 64 µg/mL
[2]; [28]
  MIC: > 64 µg/mL
[2]; [29]
  MIC: > 64 µg/mL
[2]; [30]
  MIC: > 64 µg/mL
[2]; [31]
  MIC: > 64 µg/mL
[2]; [32]
  MIC: > 64 µg/mL
[2]; [33]
  MIC: 64 µg/mL (≈ 168 µM)
[2]; [34]
  MIC: > 64 µg/mL
[2]; [35]
  MIC: > 64 µg/mL
[2]; [36]
  MIC: > 64 µg/mL
[2]; [37]
  MIC: > 64 µg/mL
[2]; [38]
  MIC: > 64 µg/mL
[2]; [39]
  MIC: > 64 µg/mL
[2]; [40]
  MIC: 64 µg/mL (≈ 168 µM)
[2]; [41]
  MIC: > 64 µg/mL
[2]; [42]
  MIC: 64 µg/mL (≈ 168 µM)
[2]; [43]
  MIC: > 64 µg/mL
[2]; [44]
  MIC: > 64 µg/mL
[2]; [45]
  MIC: > 64 µg/mL
[2]; [46]
  MIC: > 64 µg/mL
[2]; [47]
  MIC: 64 µg/mL (≈ 168 µM)
[2]; [48]
  MIC: > 64 µg/mL
[2]; [49]
  MIC: > 64 µg/mL
[2]; [50]
  MIC: > 64 µg/mL
[2]; [51]
  MIC: 64 µg/mL (≈ 168 µM)
[2]; [52]
  MIC: > 64 µg/mL
[2]; [53]
  MIC: > 64 µg/mL

## O=C(N[C@H](CO)[C@H](O)c1ccc([N+](=O)[O-])cc1)C(Cl)Cl [Cloramphenicol, cloramphenicol]
[1]; [3]
  MIC: 8 µg/mL (≈ 24.8 µM)
[1]; Strain 52 VISA
  MIC: 8 µg/mL (≈ 24.8 µM)
[1]; VISA (2) Met-R
  MIC Range: 8 µg/mL (≈ 24.8 µM)
[1]; VISA (2) Met-R, NCCLS (1999) breakpoints
  % susceptible at breakpoint: 100%
[2]; S. aureus (50) Met-R
  MIC Range: 4 to 64 µg/mL
[2]; S. aureus (50) Met-R, NCCLS (1999) breakpoints
  % susceptible at breakpoint: 66%
[2]; [4]
  MIC: 4 µg/mL (≈ 12.4 µM)
[2]; [5]
  MIC: 64 µg/mL (≈ 198 µM)
[2]; [6]
  MIC: 4 µg/mL (≈ 12.4 µM)
[2]; [7]
  MIC: 4 µg/mL (≈ 12.4 µM)
[2]; [8]
  MIC: 64 µg/mL (≈ 198 µM)
[2]; [9]
  MIC: 64 µg/mL (≈ 198 µM)
[2]; [10]
  MIC: 8 µg/mL (≈ 24.8 µM)
[2]; [11]
  MIC: 64 µg/mL (≈ 198 µM)
[2]; [12]
  MIC: 8 µg/mL (≈ 24.8 µM)
[2]; [13]
  MIC: 4 µg/mL (≈ 12.4 µM)
[2]; [14]
  MIC: 64 µg/mL (≈ 198 µM)
[2]; [15]
  MIC: 64 µg/mL (≈ 198 µM)
[2]; [16]
  MIC: 8 µg/mL (≈ 24.8 µM)
[2]; [17]
  MIC: 8 µg/mL (≈ 24.8 µM)
[2]; [18]
  MIC: 8 µg/mL (≈ 24.8 µM)
[2]; [19]
  MIC: 8 µg/mL (≈ 24.8 µM)
[2]; [20]
  MIC: 8 µg/mL (≈ 24.8 µM)
[2]; [21]
  MIC: 64 µg/mL (≈ 198 µM)
[2]; [22]
  MIC: 8 µg/mL (≈ 24.8 µM)
[2]; [23]
  MIC: 64 µg/mL (≈ 198 µM)
[2]; [24]
  MIC: 64 µg/mL (≈ 198 µM)
[2]; [25]
  MIC: 8 µg/mL (≈ 24.8 µM)
[2]; [26]
  MIC: 64 µg/mL (≈ 198 µM)
[2]; [27]
  MIC: 64 µg/mL (≈ 198 µM)
[2]; [28]
  MIC: 8 µg/mL (≈ 24.8 µM)
[2]; [29]
  MIC: 8 µg/mL (≈ 24.8 µM)
[2]; [30]
  MIC: 8 µg/mL (≈ 24.8 µM)
[2]; [31]
  MIC: 64 µg/mL (≈ 198 µM)
[2]; [32]
  MIC: 8 µg/mL (≈ 24.8 µM)
[2]; [33]
  MIC: 8 µg/mL (≈ 24.8 µM)
[2]; [34]
  MIC: 8 µg/mL (≈ 24.8 µM)
[2]; [35]
  MIC: 64 µg/mL (≈ 198 µM)
[2]; [36]
  MIC: 64 µg/mL (≈ 198 µM)
[2]; [37]
  MIC: 64 µg/mL (≈ 198 µM)
[2]; [38]
  MIC: 8 µg/mL (≈ 24.8 µM)
[2]; [39]
  MIC: 8 µg/mL (≈ 24.8 µM)
[2]; [40]
  MIC: 8 µg/mL (≈ 24.8 µM)
[2]; [41]
  MIC: 8 µg/mL (≈ 24.8 µM)
[2]; [42]
  MIC: 8 µg/mL (≈ 24.8 µM)
[2]; [43]
  MIC: 8 µg/mL (≈ 24.8 µM)
[2]; [44]
  MIC: 8 µg/mL (≈ 24.8 µM)
[2]; [45]
  MIC: 8 µg/mL (≈ 24.8 µM)
[2]; [46]
  MIC: 8 µg/mL (≈ 24.8 µM)
[2]; [47]
  MIC: 8 µg/mL (≈ 24.8 µM)
[2]; [48]
  MIC: 8 µg/mL (≈ 24.8 µM)
[2]; [49]
  MIC: 8 µg/mL (≈ 24.8 µM)
[2]; [50]
  MIC: 8 µg/mL (≈ 24.8 µM)
[2]; [51]
  MIC: 64 µg/mL (≈ 198 µM)
[2]; [52]
  MIC: 8 µg/mL (≈ 24.8 µM)
[2]; [53]
  MIC: 64 µg/mL (≈ 198 µM)
[2]; Staphylococcus aureus, S. aureus (50) Met-R, read-out: MIC 50%
  MIC50: 8 µg/mL (≈ 24.8 µM)
[2]; Staphylococcus aureus, S. aureus (50) Met-R, read-out: MIC 90%
  MIC90: 64 µg/mL (≈ 198 µM)
